# Experimental data taken from ChEMBL document CHEMBL3885861, “Open TG-GATES”.
# Organism: Rattus norvegicus
# Assay: Open TG-GATES - Regimen: Single
# Assay type: toxicity, organism-based, Sprague-Dawley
# Set-up: regimen Single, gender Male, age 6 weeks
# Conditions: in vivo, po, 0 mg/kg, route gavage, dose level Control; for APTT / Bas / Eos / Fbg / Hb / Ht / Lym / MCH / MCHC / MCV / Mono / Neu / PT / Plat / RBC / Ret / WBC: tissue Blood; for KIDNEY_L / KIDNEY_R / KIDNEY_TOTAL: tissue Kidney; for LIVER: tissue Liver; for A/G / ALP / ALT / AST / BUN / CRE / Ca / Cl / DBIL / GLC / IP / K / LDH / Na / PL / RALB / TBIL / TC / TG / TP / gamma-GTP: tissue Plasma
smiles,measurement,setting,value
CCCCNC(=O)NS(=O)(=O)c1ccc(C)cc1 [TOLBUTAMIDE],TERMINAL_BW,3 h,203.9 g
same,APTT,3 h,16.5 s
same,Bas,3 h,0%
same,Eos,3 h,0.8%
same,Fbg,3 h,286.6 mg/dL
same,Hb,3 h,13.7 g/dL
same,Ht,3 h,42.1%
same,Lym,3 h,78.2%
same,MCH,3 h,21 pg
same,MCHC,3 h,32.5%
same,MCV,3 h,64.8 fL
same,Mono,3 h,2.8%
same,Neu,3 h,18%
same,PT,3 h,12.9 s
same,Plat,3 h,128.5 x10_4/uL
same,RBC,3 h,649.4 x10_4/ul
same,Ret,3 h,8.5%
same,WBC,3 h,86 x10_2/uL
same,KIDNEY_L,3 h,0.9 g
same,KIDNEY_R,3 h,0.9 g
same,KIDNEY_TOTAL,3 h,1.8 g
same,LIVER,3 h,9.1 g
same,A/G,3 h,0.9
same,ALP,3 h,1445.2 IU/L
same,ALT,3 h,43.8 IU/L
same,AST,3 h,73.6 IU/L
same,BUN,3 h,9.8 mg/dL
same,CRE,3 h,0.2 mg/dL
same,Ca,3 h,11 mg/dL
same,Cl,3 h,106.8 meq/L
same,DBIL,3 h,0.006 mg/dL
same,GLC,3 h,175 mg/dL
same,IP,3 h,8.9 mg/dL
same,K,3 h,4.1 meq/L
same,LDH,3 h,52.4 IU/L
same,Na,3 h,141.6 meq/L
same,PL,3 h,145 mg/dL
same,RALB,3 h,2.5 g/dL
same,TBIL,3 h,0.078 mg/dL
same,TC,3 h,80.8 mg/dL
same,TG,3 h,54.6 mg/dL
same,TP,3 h,5.3 g/dL
same,gamma-GTP,3 h,1 IU/L
same,TERMINAL_BW,6 h,204 g
same,APTT,6 h,18.7 s
same,Bas,6 h,0.2%
same,Eos,6 h,1%
same,Fbg,6 h,279.6 mg/dL
same,Hb,6 h,13.6 g/dL
same,Ht,6 h,41.9%
same,Lym,6 h,80.4%
same,MCH,6 h,20.6 pg
same,MCHC,6 h,32.5%
same,MCV,6 h,63.6 fL
same,Mono,6 h,2%
same,Neu,6 h,15.8%
same,PT,6 h,13.1 s
same,Plat,6 h,131.1 x10_4/uL
same,RBC,6 h,659.4 x10_4/ul
same,Ret,6 h,8.1%
same,WBC,6 h,84.4 x10_2/uL
same,KIDNEY_L,6 h,0.9 g
same,KIDNEY_R,6 h,0.9 g
same,KIDNEY_TOTAL,6 h,1.9 g
same,LIVER,6 h,8.8 g
same,A/G,6 h,0.9
same,ALP,6 h,1197.4 IU/L
same,ALT,6 h,36.6 IU/L
same,AST,6 h,66.4 IU/L
same,BUN,6 h,8.4 mg/dL
same,CRE,6 h,0.2 mg/dL
same,Ca,6 h,10.7 mg/dL
same,Cl,6 h,105.6 meq/L
same,DBIL,6 h,0.01 mg/dL
same,GLC,6 h,172.6 mg/dL
same,IP,6 h,9.5 mg/dL
same,K,6 h,4.1 meq/L
same,LDH,6 h,49 IU/L
same,Na,6 h,141.2 meq/L
same,PL,6 h,138.4 mg/dL
same,RALB,6 h,2.5 g/dL
same,TBIL,6 h,0.078 mg/dL
same,TC,6 h,78.8 mg/dL
same,TG,6 h,46.6 mg/dL
same,TP,6 h,5.2 g/dL
same,gamma-GTP,6 h,1 IU/L
same,TERMINAL_BW,9 h,202.2 g
same,APTT,9 h,15.8 s
same,Bas,9 h,0.2%
same,Eos,9 h,1.2%
same,Fbg,9 h,284 mg/dL
same,Hb,9 h,13.3 g/dL
same,Ht,9 h,40.1%
same,Lym,9 h,75.6%
same,MCH,9 h,21 pg
same,MCHC,9 h,33%
same,MCV,9 h,63.6 fL
same,Mono,9 h,2%
same,Neu,9 h,20.8%
same,PT,9 h,13.3 s
same,Plat,9 h,121 x10_4/uL
same,RBC,9 h,633 x10_4/ul
same,Ret,9 h,8.3%
same,WBC,9 h,72.5 x10_2/uL
same,KIDNEY_L,9 h,0.9 g
same,KIDNEY_R,9 h,1 g
same,KIDNEY_TOTAL,9 h,1.9 g
same,LIVER,9 h,7.9 g
same,A/G,9 h,0.9
same,ALP,9 h,1161.6 IU/L
same,ALT,9 h,38.6 IU/L
same,AST,9 h,73.8 IU/L
same,BUN,9 h,7.6 mg/dL
same,CRE,9 h,0.1 mg/dL
same,Ca,9 h,10.7 mg/dL
same,Cl,9 h,106.2 meq/L
same,DBIL,9 h,0 mg/dL
same,GLC,9 h,166.8 mg/dL
same,IP,9 h,9.4 mg/dL
same,K,9 h,4.3 meq/L
same,LDH,9 h,60.8 IU/L
same,Na,9 h,141 meq/L
same,PL,9 h,132.8 mg/dL
same,RALB,9 h,2.5 g/dL
same,TBIL,9 h,0.078 mg/dL
same,TC,9 h,78.4 mg/dL
same,TG,9 h,33.2 mg/dL
same,TP,9 h,5.2 g/dL
same,gamma-GTP,9 h,1 IU/L
same,TERMINAL_BW,24 h,220 g
same,APTT,24 h,17.4 s
same,Bas,24 h,0.2%
same,Eos,24 h,1.2%
same,Fbg,24 h,296 mg/dL
same,Hb,24 h,13.3 g/dL
same,Ht,24 h,40.5%
same,Lym,24 h,74.2%
same,MCH,24 h,21.3 pg
same,MCHC,24 h,32.9%
same,MCV,24 h,64.9 fL
same,Mono,24 h,3%
same,Neu,24 h,20.4%
same,PT,24 h,12.9 s
same,Plat,24 h,123.6 x10_4/uL
same,RBC,24 h,624.8 x10_4/ul
same,Ret,24 h,7.7%
same,WBC,24 h,89 x10_2/uL
same,KIDNEY_L,24 h,1 g
same,KIDNEY_R,24 h,1 g
same,KIDNEY_TOTAL,24 h,2 g
same,LIVER,24 h,10.3 g
same,A/G,24 h,0.9
same,ALP,24 h,1544.6 IU/L
same,ALT,24 h,44.6 IU/L
same,AST,24 h,67 IU/L
same,BUN,24 h,15.2 mg/dL
same,CRE,24 h,0.2 mg/dL
same,Ca,24 h,11.2 mg/dL
same,Cl,24 h,104.8 meq/L
same,DBIL,24 h,0.01 mg/dL
same,GLC,24 h,171.2 mg/dL
same,IP,24 h,8.3 mg/dL
same,K,24 h,4 meq/L
same,LDH,24 h,78 IU/L
same,Na,24 h,141.6 meq/L
same,PL,24 h,162.4 mg/dL
same,RALB,24 h,2.6 g/dL
same,TBIL,24 h,0.066 mg/dL
same,TC,24 h,89.8 mg/dL
same,TG,24 h,85.4 mg/dL
same,TP,24 h,5.6 g/dL
same,gamma-GTP,24 h,1.2 IU/L
